Test results published in patent US20250304617A1, “COMPOUND, SALT OF COMPOUND, ANTIBODY MODIFICATION REAGENT, METHOD FOR PRODUCING MODIFIED ANTIBODY, AND MODIFIED ANTIBODY” (Kagoshima University, priority 2021, published 2025).

Test: Examination of stability in DMSO (HPLC purity)
Type: physicochemical
Settings: 20 mg/mL in DMSO
Method: The compound A, the compound B, or the comparative example was dissolved in DMSO at a content of 20 mg/mL, allowed to stand at room temperature or −20° C. for a predetermined time, and analyzed by HPLC.
For the compound A, the compound B, and the comparative example, the ratio of the area of the main peak to the sum of the areas of all peaks (HPLC purity) is shown in Table 1.

Question: Which “HPLC purity (ratio of the area of the main peak to the sum of the areas of all peaks)” value (room temperature, 0 Hours) does the source give for `[N-]=[N+]=NCCCCC1NONC(C(N)=O)CCCCC(NCCCC(=O)C(Cc2ccccc2)NC(=O)CCCC(=O)ON2C(=O)CCC2=O)C(=O)N1` (stereo not shown) [Comparative example, DSG-αZ34C, reference compound] here?
Answer: 85%

Question: And the “HPLC purity (ratio of the area of the main peak to the sum of the areas of all peaks)” value (room temperature, 22 Hours)?
Answer: 83%

Question: What about the “HPLC purity (ratio of the area of the main peak to the sum of the areas of all peaks)” value (−20° C., 0 Days) of the same compound?
Answer: 92%

Question: What about the “HPLC purity (ratio of the area of the main peak to the sum of the areas of all peaks)” value (−20° C., 30 Days) of the same compound?
Answer: 85%
